Marks after values point to notes of the source that are not given here.
Legend:
[1] = cited from earlier work; for covalent (hepatic) DNA adducts: rat, in vivo; for long-term carcinogenicity: rats
[2] = test system: TGF-beta; test: TGF-beta production by human VSMCs in culture; type: cell-based; settings: cultured VSMCs
Method: The amount of TGF-beta present in medium conditioned on VSMCs in the presence and absence of aspirin was measured by ELISA.
The ED50 for TGF-beta production of the complex (Cu Aspirinate) was determined in cultured rat and human VSMCs.

[3] = test system: TGF-beta; test: TMX 40 mg/day for 10 days in TVD patients: plasma TGF-beta; type: in vivo, human
Method: Active plus acid-activatable latent (a+1) TGF-beta levels were assayed in platelet-poor plasma using seven different assay methods. There has been debate in the literature regarding the most appropriate way to measure (a+1) TGF-beta, so to avoid difficulties specific to any particular measurement method all the available methods which have been described in the literature were used. The seven methods are:
(A) A sandwich ELISA using BDA19 and BDA5 (R&D Systems) antibodies with no activation step required.
(B) The Quantikine TGF-beta1 ELISA kit (R&D Systems) using acid/urea as the activation buffer in accordance with the manufacturer's instructions
(C) The Quantikine TGF-beta1 ELISA kit (R&D Systems) using acid alone as the activation buffer
(D) The BioTrak TGF-beta1 ELISA kit (Amersham International) using acid/urea as the activation buffer
(E) The BioTrak TGF-beta1 ELISA kit (Amersham International) using acid alone as the activation buffer in accordance with the manufacturers instructions
(F) The TGF-beta1 ELISA kit (Genzyme Diagnostics) using acid/urea as the activation buffer in accordance with the manufacturer's instructions
(G) The TGF-beta1 ELISA kit Promega Corporation) using acid alone as the activation buffer in accordance with the manufacturer's instructions
Replicate aliquots of plasma taken from the same individuals at the same time were assayed by all seven methods.
The partitioning of TGF-beta between the lipoproteins and plasma proteins was analyzed by separating the lipoprotein fraction (d<[…]) from the plasma proteins by density ultracentrifugation as described hereinabove. TGF-beta levels were assayed in both fractions using the Quantikine ELISA kit, following release and activation of TGF-beta with acetic acid and urea in accordance with the manufacturer's instructions. None of the three TGF-beta ELISAs used here detected TGF-beta in the lipoprotein fraction without prior extraction/activation with acetic acid/urea.

[4] = test system: apoE knockout mice; test: Lipid lesion development in aortic sinus of apoE knockout mice (Oil Red O); settings: mouse aorta
Method: To determine the efficacy of combination therapy, and to provide evidence for synergism between aspirin and fish oil, 8-week-old female apoE knockout mice were fed aspirin or fish oil, or both, to assess the cardioprotective effects of modulating different components of the TGF-beta pathway.
Group A mice (n=10) were sacrificed at day 0. Group B mice (n=10) were fed normal chow. […] Group D mice (n=10) were fed chow containing 33 mg/kg/day fish oil (200 μg Pulse cod liver oil/g food, Seven Seas Ltd., which contains 0.9 g eicosapentaenoic acid (EPA), and 0.3 g docosahexaenoic acid (DHA)) and 3 mg/kg/day aspirin dissolved in water. Group E mice (n=10) were fed chow containing 33 mg/kg/day fish oil. Group F mice (n=10) were fed chow containing Zocor (simvastatin; Zocor tablets, Merck, Sharpe & Dohme) at 400 μg/kg/day (2 μg/g food).
Groups B-F were fed these regimens for 87 days. All mice were weighed daily for the first week and weekly thereafter. Food and water consumption over a 24 hour period were measured daily for the first 7 days and weekly thereafter.
After 87 days, mice in groups B-F were fasted overnight and then sacrificed. Serum, heart, lungs and aorta samples were collected at the time of sacrifice. The heart, lungs and aorta were removed from each mouse and rinsed in PBS, dabbed dry on tissue and embedded in Cryo-M-bed embedding medium (Bright Instruments, Huntington, U.K.) before snap freezing in liquid nitrogen. Frozen sections (4 μm thickness) of the aortic sinus region were prepared from the heart/lung/aorta blocks according to the sectioning strategy of Paigen et al. (Arteriosclerosis, 10, 316 (1990)). Sections on 5% gelatin-coated slides were stained for neutral lipid by the Oil Red O technique and counter-stained with fast green (Grainger et al., Nature Med., 1, 1067 (1995)).
The development of lipid-filled vascular lesions was determined by the quantitation of oil red O staining for neutral lipid deposited in the aortic sinus region. The area of lipid accumulation was measured using a calibrated microscope eye-piece, such that lipid droplets<50 μm^2 were ignored and contiguous regions of lipid staining>500 μm in area were classified as lesions.

[5] = test system: NFkB; test: NFkB translocation (p65 immunostaining) and kB-luciferase reporter activity in human SMCs; type: cell-based
Source text: In cells which had been transfected with a reporter construct which has three consensus kB DNA elements fused to the luciferase gene, the amount of light which was produced when the cell lysate was exposed to luciferin and ATP was proportional to NFkB activity.

[6] = Serum lipid and lipoprotein profile of apoE knockout mice; type: in vivo, mouse; settings: apo(E)−/− mouse
Method: The effect of each treatment on the lipid profile of each group of mice was determined by measuring the cholesterol and triglyceride. Blood from a terminal bleed was collected in a polypropylene tube, allowed to clot at room temperature for 2 hours and then spun (1,000×g; 5 minutes). The serum supernatant was aliquoted and stored at −20° C. until assayed. Total cholesterol and total triglycerides were determined for each mouse using the cholesterol oxidase and glycerol kinase UV end-point enzymatic methods respectively (Sigma Diagnostics).

[7] = TMX 40 mg/day for 10 days in TVD patients: plasma lipids, Lp(a), PAI-1
Source text: Patients with triple vessel disease (TVD) were defined as individuals having at least 50% stenosis of all three coronary arteries by angiography, which was confirmed by two independent observers. All had stable angina, with no myocardial infarction in the previous three months. Patients with unstable angina, poor left ventricular function, ventricular hypertrophy or diabetes were excluded.
Blood samples were taken and plasma prepared before and during the treatment period, and these samples were analyzed for TGF-beta, Lp(a), PAI-1 and lipoprotein profiles. Patients were asked to fast overnight prior to samples of blood being drawn between 9 am. and 10 a.m. the following morning. Blood samples were drawn by venepuncture of the antecubital vein with no tourniquet applied using a 21 gauge butterfly needle. Half the blood was allowed to clot for 2 hours at room temperature in polypropylene tubes. The clot was spun down (1,500×g; 15 minutes) and aliquots of the serum was stored at −100° C. The remaining blood was dispensed into Diatube H tubes (Diagnostica Stago) and cooled on ice for 15 minutes. Blood cells and platelets were spun down (6,000×g; 30 minutes) and the middle third of the supernatant was taken, carefully avoiding disturbing the pellet. This platelet-poor plasma was stored in aliquots at −100° C. until assayed.
Total plasma triglyceride, total plasma cholesterol, HDL-cholesterol, LDL-cholesterol and VLDL-cholesterol were routinely assayed in all patients.

[8] = test system: GR; test: MMTV LTR-CAT reporter in stably transfected SMCs; type: cell-based
Source text: Because ER. interacts with NFkB transcription factor complexes in a similar manner to that for GR, agents which modulate ER/NFkB interaction should modulate the inflammatory response without activating GR. To test this hypothesis, SMCs in DMEM+10% FCS were transfected with a vector comprising the MMTV LTR promoter coupled to the chloramphenicol acetyl transferase (CAT) gene and the neomycin resistance gene (neo). A stably transfected line was selected using geneticin. When these cells were treated with dexamethasone, expression of the CAT gene was elevated 3.7±0.7 fold. […] Thus, ER/NFkB modulators would be expected to circumvent the undesirable side-effect profile associated with direct transcriptional activation by GR.

[9] = rats; cited from earlier work
[10] = target: T1, recombinant extracellular domain of the type II TGF-beta receptor (R2X) (Homo sapiens, UniProt P37173); settings: no lipoprotein; previously determined; cited from earlier work
T1 construct: the recombinant extracellular domain of the type II TGF-beta receptor (R2X)
T1 sequence (P37173 23-166 limits assumed): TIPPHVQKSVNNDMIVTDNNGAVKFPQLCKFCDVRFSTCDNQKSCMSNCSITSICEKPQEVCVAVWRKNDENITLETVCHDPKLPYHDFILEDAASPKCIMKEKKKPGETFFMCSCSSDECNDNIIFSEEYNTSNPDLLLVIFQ

[11] = test system: mink lung epithelial (MvLu) cells; test: Inhibition of MvLu cell proliferation; type: cell-based
Source text: It has previously been shown that TGF-beta inhibits the proliferation of mink lung epithelial (MvLu) cells in culture. […] J. Physiol., 265, C571 (1993). […] Addition of lipoprotein purified from the plasma of individual I caused a dose-dependent increase in the ID50 of TGF-beta.

[12] = target: T1, recombinant extracellular domain of the type II TGF-beta receptor (R2X); test: Binding of recombinant TGF-beta to R2X (ELISA); settings: lipoprotein equivalent to 3 mM total cholesterol added; maximal value
Method: To determine whether the TGF-beta associated with lipoprotein particles was able to bind to the type II TGF-beta signaling receptor and exert biological activity in vitro, the binding of recombinant TGF-beta to R2X was measured in the absence and presence of increasing concentrations of lipoprotein purified from the plasma of an individual with <1 ng/ml TGF-beta in plasma (individual I, Table 1). If the lipoprotein-associated fraction of TGF-beta is unavailable for binding, lipoproteins prepared from an individual with a very low plasma concentration of TGF-beta would be expected to reduce the binding of recombinant active TGF-beta to its receptors. The half maximal (ka) binding of recombinant TGF-beta to the recombinant extracellular domain of the type II TGF-beta receptor was previously determined to be 17±3 ng/ml (R2X; Grainger et al., Nature, 270, 460 (1994); Grainger et al., Clin. Chim. Acta, 235, 11 (1995)).
To measure the binding of TGF-beta to its receptor, the recombinant extracellular domain of the type II TGF-beta receptor (R2X), was coated onto ELISA plates (1 μg/well, Maxisorp plates, Gibco BRL). Wells were washed 3 times quickly in TBS and blocked with TBS containing 3% bovine serum albumin (BSA, fatty-acid free; Sigma) for 30 minutes. […] The amount of bound TGF-beta was detected with antibody BDA5 (R&D Systems) as previously described by Grainger et al., Clin. Chim. […]

[13] = TNF-alpha (20 ng/ml) and tamoxifen (5 μM) simultaneously

CC/C(=C(/c1ccc(I)cc1)c1ccc(OCCN(C)C)cc1)c1ccccc1 [4-iodotamoxifen]
covalent (hepatic) DNA adducts [1]: absence of DNA adducts

CC(=O)Oc1ccccc1C(=O)[O-].CC(=O)Oc1ccccc1C(=O)[O-].[Cu+2] [Cu aspirinate, copper II (acetyl salicylate)2]
potency at stimulating TGF-beta relative to aspirin [2]: almost two orders of magnitude more potent

CC/C(=C(\c1ccccc1)c1ccc(OCCN(C)C)cc1)c1ccccc1 [TMX, trans-2-[4-(1,2-diphenyl-1-butenyl)phenoxy]-N,N-dimethylethylamine]
Plasma (a + 1) TGF-β, Method (A) ([3]; Day 10, BDA19/BDA5 sandwich ELISA): 7.7 ± 1.5 ng/mL
Plasma (a + 1) TGF-β, Method (E) ([3]; Day 10, BioTrak, acid alone): 2.3 ± 0.1 ng/mL
Plasma (a + 1) TGF-β, Method (D) ([3]; Day 10, BioTrak, acid/urea): 2.4 ± 0.1 ng/mL
Plasma (a + 1) TGF-β, Method (F) ([3]; Day 10, Genzyme, acid/urea): 5.2 ± 0.3 ng/mL
Plasma (a + 1) TGF-β, Method (G) ([3]; Day 10, Promega, acid alone): 0.2 ± 0.1 ng/mL
Plasma (a + 1) TGF-β, Method (C) ([3]; Day 10, Quantikine, acid alone): 0.62 ± 0.07 ng/mL
Plasma (a + 1) TGF-β, Method (B) ([3]; Day 10, Quantikine, acid/urea): 1.2 ± 0.2 ng/mL
change in plasma (a + 1) TGF-β, Method (A) ([3]; Day 10 vs Day 0): (+24%)
change in plasma (a + 1) TGF-β, Method (B) ([3]; Day 10 vs Day 0): (+71%)
change in plasma (a + 1) TGF-β, Method (C) ([3]; Day 10 vs Day 0): (+148%)
change in plasma (a + 1) TGF-β, Method (D) ([3]; Day 10 vs Day 0): (+20%)
change in plasma (a + 1) TGF-β, Method (E) ([3]; Day 10 vs Day 0): (+29%)
change in plasma (a + 1) TGF-β, Method (F) ([3]; Day 10 vs Day 0): (+59%)
change in plasma (a + 1) TGF-β, Method (G) ([3]; Day 10 vs Day 0): (+100%)
proportion of plasma TGF-beta that is lipoprotein-associated ([3]; after 10 days of TMX therapy, Quantikine ELISA): 25±3%
median increase in (a+1) TGF-beta ([3]; by day 10): 59%
long-term carcinogenicity [1]: liver carcinogenicity
% Lesion Suppression [4]: 99* %
inhibition at 5 µM ([5]; Homo sapiens, read-out: inhibition of TNF-alpha-induced NFkB activity): 86 ± 12%
NFkB translocated to the nucleus [5, 13]: less than 10%
stimulation of NFkB activity [5, 13]: less than 3 fold
change in NFkB activity ([5]; tamoxifen alone): no detectable change
lowering of VLDL [6]: seven fold
HDL-cholesterol ([7]; Day 10): 0.77 ± 0.04 mM
LDL-cholesterol ([7]; Day 10): 4.16 ± 0.25 mM
Lipoprotein(a) ([7]; Day 10): 42.4 ± 9.5 mg/dL
Plasma PAI-I antigen ([7]; Day 10): 35.9 ± 5.4 ng/mL
Total plasma triglycerides ([7]; Day 10): 2.28 ± 0.35 mM
VLDL-cholesterol ([7]; Day 10): 0.84 ± 0.11 mM
Total plasma cholesterol ([7]; Day 10, mean ± standard error, 15 patients): 5.95 ± 0.29 mM
concentration of HDL-cholesterol, change ([7]; after 10 days): unchanged
concentration of LDL-cholesterol, change ([7]; after 10 days): unchanged
decrease in total plasma cholesterol below baseline ([7]; after 10 days): 6%
reduction of cholesterol in the VLDL fraction below baseline ([7]; after 10 days): 18%
lowering of total plasma triglyceride concentration ([7]; after 10 days, not statistically significant (p=0.22)): 18%
decrease in plasma concentration of Lp(a) ([7]; day 3 vs baseline): 27%
reduction in Lp(a) concentration ([7]; day 10 vs baseline): 31%

CN(C)CCOc1ccc(/C(=C(/CCCl)c2ccccc2)c2ccccc2)cc1 [Toremifene, toremifene]
covalent (hepatic) DNA adducts [1]: very low level
long-term carcinogenicity [1]: non-carcinogenic

C[C@@H]1C[C@H]2[C@@H]3CCC4=CC(=O)C=C[C@]4(C)[C@@]3(F)[C@@H](O)C[C@]2(C)[C@@]1(O)C(=O)CO [dexamethasone]
elevation of expression of the CAT gene [8]: 3.7±0.7 fold

CC/C(=C(\c1ccc(I)cc1)c1ccc(OCCN2CCCC2)cc1)c1ccccc1 [idoxifene, (E)-1-[4-[2-(N-pyrrolidino)ethoxy]phenyl]-1-(4-iodophenyl)-2-phenyl-1-butene]
covalent (hepatic) DNA adducts [1]: absence of DNA adducts
residual estrogenic activity compared with TMX [9]: reduced residual estrogenic activity

TNF-alpha
NFkB translocated to the nucleus ([5]; 20 ng/ml, 6 hours at 37° C.): > 80%
increase in NFkB activity ([5]; 20 ng/ml, 6 hours, luciferase reporter): 19 fold

recombinant TGF-beta: recombinant active TGF-beta1 (R&D Systems)
half maximal (ka) binding of recombinant TGF-beta to R2X [10]: 17 ± 3 ng/mL
MvLu cell ID50 ([11]; 3 mM total cholesterol lipoprotein added, maximal): 0.52 ± 0.08 ng/mL
MvLu cell ID50 ([11]; no lipoprotein, n=6): 0.12 ± 0.04 ng/mL
apparent ka for TGF-beta binding to R2X [12]: 42 ± 6 ng/mL
